A word on the pIC50: it is −log10 of the IC50, conventionally taken in molar units. Usually viability, T/C stands for the result in the treated group divided by that in the control group, in per cent.

pIC50: −log10 of the molar value. Values joined by “and” are separate entries in the source; they are usually repeats but may differ in a detail not shown here. Equal entries are not always repeated.

This is an account of results in PubChem BioAssay AID2060907 (Molecular Pharmacology Branch, DTP, NCI, 2025).

The assay has as its system 388556-164-R-J1-PDC complex spheroid viability. Put plainly: Anticancer human tumor 388556-164-R-J1-PDC patient-derived colon adenocarcinoma cell line growth inhibition [RAS]. The note with it: for viability, T/C: stronger effect = lower value. The text has this:
RAS pathway inhibitors in Combinations in Complex Spheroids
A high-throughput screen of multi-cell type tumor spheroids was designed to identify active combinations of RAS pathway inhibitors and targeted small molecules. Complex spheroids include a stromal component modeled by human endothelial cells (HUVEC) and fibroblasts modeled by human mesenchymal stem cells (MSCs). The concentration ranges selected for each drug and investigational agent were based upon clinically achievable concentrations if the clinical Cmax of the agent was known.
Compounds. The drugs and investigational agents: abemaciclib (NSC768073), cobimetinib (NSC768068), divarasib (GDC6063, NSC841802), docetaxel (NSC628503), GDC-1971 (RLY-1971, NSC841576), gemcitabine (NSC613327), inavolisib (NSC800729), ipatasertib (NSC767898), KB-0742 (NSC834161), MRTX-1133 (NSC836407), osimertinib (NSC779217), RMC-4630 (NSC839698), RMC-6236 (NSC851965), RMC-6291 (NSC852671), Ro-3306 (NSC812927), sapanisertib (NSC764658), SN-38 (NSC673596), staurosporine (NSC755774), SY5609 (NSC837396), and tovorafenib (DAY101, NSC766906), were obtained from the National Cancer Institute (NCI) Developmental Therapeutics Program Chemical Repository. The FDA-approved anticancer drug set is available from the NCI Developmental Therapeutics Program. […] The stock solutions were prepared in dimethyl sulfoxide (DMSO, Sigma-Aldrich, St. Louis, MO, cat. D2650) at 800-fold the tested concentration and stored at -70 degrees C prior to their use. All drugs and investigational agents were tested over a range starting from a high concentration at or near the clinical Cmax and decreasing in half-log increments. If the clinical Cmax for an agent had not been determined, the highest concentration tested was 10 microM.
Cell Culture. All cells were maintained in an incubator at 37 degrees C and 5% CO2 with 95% humidity. The PDC lines were cultured according to standard operating procedures established by the NCI PDMR. All PDCs were thawed and cultured in Matrigel-coated flasks prepared with a working solution of 1X Ham's F-12 nutrient mix, without supplementation (Invitrogen, Waltham, MA, cat. 11765054), 100 U/mL penicillin-streptomycin (Invitrogen, cat. 15140122), and 2.5% Matrigel (Corning Inc., Corning, NY, cat. 354248) for the first three passages. The 362531-283-R-J2-PDC and 782815-120-R-J1-PDC lines were cultured in 6C/Colon 1B media, which includes advanced DMEM/F-12 (Thermo Fisher Scientific, cat. 12634028), 10 mM HEPES (Thermo Fisher Scientific, cat. 15630080), 1X GlutaMAX supplement (Thermo Fisher Scientific, cat. 35050061), 0.1 mg/mL primocin (InvivoGen, San Diego, CA, cat. ant-pm-2), 10% defined fetal bovine serum, heat inactivated (HyClone Laboratories Inc., Logan, UT, cat. SH30070.03HI), 50% L-WRN conditioned media (ATCC, cat. CRL-3276), 1.25 mM N-Acetyl-L-cysteine (Sigma-Aldrich, cat. A9165), 10 mM nicotinamide (Sigma-Aldrich, cat. N0636), 1X B-27 supplement (Thermo Fisher Scientific, cat. 17504044), 1X N-2 supplement (Thermo Fisher Scientific, cat. 17502048), 50 ng/mL human EGF (Thermo Fisher Scientific, cat. PHG0311), and 10 microM Y-27632 dihydrochloride (Tocris Bioscience, cat. 1254). The K12877-001-R-J1-PDC line was cultured in 6I media, which includes all 6C/Colon 1B media plus 10 ng/mL human FGF-10 (PeproTech, cat. 100-26), 1 ng/mL human FGF-2 (PeproTech, cat. 100-18B), 1 µM prostaglandin E2 (Tocris Bioscience, cat. 2296), […] hydrocortisone (Sigma-Aldrich, cat. H4001), and […] bovine insulin (Sigma-Aldrich, cat. I6634). The K86415-001-R-J1-PDC line was cultured in 6D media, which includes all 6C/Colon 1B media components minus the L-WRN conditioned media. The 485176-168-R4-J1-PDC was cultured in PANC media, which includes all 6C/Colon 1B media plus 100 ng/mL human FGF-10 (PeproTech, cat. 100-26), 500 nM SB-431542 (Selleckchem, cat. S1067), and 10 nM gastrin (Tocris Bioscience, cat. 3006). […]
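Further: spheroids exposed to compound for 7 days before readout.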
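Wherever viability, T/C is given: 100% = DMSO vehicle control luminescence.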

In the case of `CC1(C)CCC(Nc2ncc(C(F)(F)F)c(-c3c[nH]c4c(P(C)(C)=O)c(C#N)ccc34)n2)CN1` (configuration not stated) + CCn1c(-c2cc(N3CCN(C)CC3)cnc2C(C)OC)c2c3cc(ccc31)-c1csc(n1)CC(NC(=O)C1CC1C)C(=O)N1CCCC(N1)C(=O)OCC(C)(C)C2, the pIC50 is < 6.52 (curve of first compound, second compound 0.000949 µM); < 6.52 (curve of first compound, second compound 0.003 µM); < 6.52 (curve of first compound, second compound 0.00949 µM); < 6.52 (curve of first compound, second compound 0.03 µM); 8.47 (curve of first compound, second compound 0.0949 µM); > 9.02 (curve of first compound, second compound 0.3 µM). The viability, T/C is 104% (second compound 0.000949 µM, first compound 0.000949 µM); 87.9% (second compound 0.000949 µM, first compound 0.003 µM); 98.1% (second compound 0.000949 µM, first compound 0.00949 µM); 78.5% (second compound 0.000949 µM, first compound 0.03 µM); 83.8% (second compound 0.000949 µM, first compound 0.0949 µM); 84.9% (second compound 0.000949 µM, first compound 0.3 µM). The viability, T/C by setting is: (second compound 0.003 µM, first compound 0.000949 µM) 101%; (second compound 0.003 µM, first compound 0.003 µM) 86.9%; (second compound 0.003 µM, first compound 0.00949 µM) 82.5%; (second compound 0.003 µM, first compound 0.03 µM) 86.8%; (second compound 0.003 µM, first compound 0.0949 µM) 85.3%; (second compound 0.003 µM, first compound 0.3 µM) 77.1%. The viability, T/C (second compound 0.00949 µM, first compound 0.000949 µM) is 84.2%; the viability, T/C (second compound 0.00949 µM, first compound 0.003 µM) was 73.3%; the viability, T/C (second compound 0.00949 µM, first compound 0.00949 µM) is 75.8%; the viability, T/C (second compound 0.00949 µM, first compound 0.03 µM) was 72.5%; the viability, T/C (second compound 0.00949 µM, first compound 0.0949 µM) was 74.6%; the viability, T/C (second compound 0.00949 µM, first compound 0.3 µM) was 68.9%. Moreover, the viability, T/C is 77.4% (second compound 0.03 µM, first compound 0.000949 µM); 70% (second compound 0.03 µM, first compound 0.003 µM); 64.5% (second compound 0.03 µM, first compound 0.00949 µM); 67.9% (second compound 0.03 µM, first compound 0.03 µM); 71.6% (second compound 0.03 µM, first compound 0.0949 µM); 58.2% (second compound 0.03 µM, first compound 0.3 µM). For the same compound, the viability, T/C by setting is: (second compound 0.0949 µM, first compound 0.000949 µM) 55.5%; (second compound 0.0949 µM, first compound 0.003 µM) 47.1%; (second compound 0.0949 µM, first compound 0.00949 µM) 47.9%; (second compound 0.0949 µM, first compound 0.03 µM) 44.1%; (second compound 0.0949 µM, first compound 0.0949 µM) 48.8%; (second compound 0.0949 µM, first compound 0.3 µM) 46.1%. Also, the viability, T/C by setting is: (second compound 0.3 µM, first compound 0.000949 µM) 33%; (second compound 0.3 µM, first compound 0.003 µM) 34.5%; (second compound 0.3 µM, first compound 0.00949 µM) 33.1%; (second compound 0.3 µM, first compound 0.03 µM) 35.9%; (second compound 0.3 µM, first compound 0.0949 µM) 41.5%; (second compound 0.3 µM, first compound 0.3 µM) 37.4%.
Regarding `CC(C)NCC(C(=O)N1CCN(c2ncnc3c2C(C)CC3O)CC1)c1ccc(Cl)cc1` (configuration not stated), the viability, T/C is 108% [middle of 4 runs] (compound 0.1 µM); 119% and 102% (3×) (compound 0.316 µM); 100% [middle of 4 runs] (compound 1 µM); 100% [middle of 4 runs] (compound 3.16 µM); 103% [middle of 4 runs] (compound 10 µM). Moreover, the pIC50 (curve of compound) is < 5.00.
On to `Nc1ccn(C2OC(CO)C(O)C2(F)F)c(=O)n1` (configuration not stated), for which the viability, T/C is 97.9% [middle of 4 runs] (compound 0.00316 µM); 93.1% [middle of 4 runs] (compound 0.01 µM); 81.8% [middle of 4 runs] (compound 0.0316 µM); 79% [middle of 4 runs] (compound 0.1 µM); 74.7% [middle of 4 runs] (compound 0.316 µM); 70.2% [middle of 4 runs] (compound 1 µM). The pIC50 (curve of compound) was < 6.00.
Regarding `CCn1c(-c2cccnc2C(C)OC)c2c3cc(ccc31)N1CCOC(CC(NC(=O)C(C(C)C)N(C)C(=O)C3(F)CCN(C(=O)C#CC(C)(C)N(C)C)CC3)C(=O)N3CCCC(N3)C(=O)OCC(C)(C)C2)C1` (configuration not stated), the viability, T/C was 105% [middle of 6 runs] (compound 0.000949 µM); 107% [middle of 6 runs] (compound 0.003 µM); 106% [middle of 6 runs] (compound 0.00949 µM); 102% [middle of 6 runs] (compound 0.03 µM); 106% [middle of 6 runs] (compound 0.0949 µM); 100% [middle of 6 runs] (compound 0.3 µM). For the same compound, the pIC50 (compound alone, run of 08/20/2024) is < 6.52.
